US20130122024A1, “NEW BINDER-DRUG CONJUGATES (ADCS) AND USE THEREOF” (Bayer Intellectual Property GmbH, priority 2011, published 2013)
Entries after “also recorded” stand apart in the source; their conditions may differ. Structures can show the parent of a compound that is named as a salt. Square brackets hold non-standard residues; d marks the D form. Peptide text beside a SMILES is read from it. * marks the point of attachment. X1 = CC(C)[C@@H](C(=O)*)N(C)CCCCCC(=O)NCCCC[C@H](N)C(=O)O; Dolaproine = CO[C@@H]([C@@H]1CCCN1)[C@@H](C)C(=O)O; Dil = CC[C@H](C)[C@H](NC)[C@@H](CC(=O)O)OC; X5 = C[C@@H](N*)[C@@H](O)c1ccccc1; Oxazinan2yl(1,2) = C1CCN(*)OC1; NMeV = CN[C@H](C(=O)O)C(C)C

B1: Example 71 immunoconjugate (MF-Ta ADC) (antibody, human IgG1, lambda, V domains shown)
VH: QVELVQSGAEVKKPGESLKISCKGSGYSFTSYWIGWVRQAPGKGLEWMGIIDPGDSRTRYSPSFQGQVTISADKSISTAYLQWSSLKASDTAMYYCARGQLYGGTYMDGWGQGTLVTVSS
VL: DIALTQPASVSGSPGQSITISCTGTSSDIGGYNSVSWYQQHPGKAPKLMIYGVNNRPSGVSNRFSGSKSGNTASLTISGLQAEDEADYYCSSYDIESATPVFGGGTKLTVLG
modifications: auristatin linker-toxophore on cysteine sulphur

Tests used:
[1] = system: Caco-2 cells; experiment: Caco-2 flux assay for cell permeability; format: in vitro ADME; settings: 2 hours, B to A
Description: (§1) The cell permeability of a substance can be investigated by means of in vitro testing in a flux assay using Caco-2 cells [M. D. Troutman and D. R. Thakker, Pharm. Res. 20 (8), 1210-1224 (2003)]. For this purpose, the cells were cultured for 15-16 days on 24-well filter plates. For the determination of permeation, the respective working example was applied in a HEPES buffer to the cells either apically (A) or basally (B) and incubated for 2 hours. After 0 hours and after 2 hours, samples were taken from the cis and trans compartments. The samples were separated by HPLC (Agilent 1200, Böblingen, Germany) using reverse phase columns. The HPLC system was coupled via a Turbo Ion Spray Interface to a Triple Quadropol mass spectrometer API 4000 (Applied Biosystems Applera, Darmstadt, Germany). The permeability was evaluated on the basis of a Papp value, which was calculated using the formula published by Schwab et al. [D. Schwab et al., J. Med. Chem. 46, 1716-1725 (2003)].

[2] = Pharmacokinetics in the HT29 tumour model, non-transfected tumours; format: in vivo; settings: after i.v. 16 mg/kg of Example 5; animals with nontransfected tumours
Description: Following intravenous administration of 16 mg/kg of Example 5, the plasma concentrations and tumour concentrations of Example 5 and also of potential metabolites such as, for example, of Example 64 were measured. […] In contrast, the AUC in the tumour in the nontransfected animals was about 8 times lower than in the transfected animals.
The measurement of the compound from Example 64 in plasma and tumour took place following precipitation of the proteins with methanol, by means of high-pressure liquid chromatography (HPLC) coupled to a tandem mass spectrometer (MS).
For the processing of 100 μL of plasma, it was admixed with 400 μL of methanol and 10 μL of internal standard (ISTD, 50 ng/mL in methanol) and shaken for 10 seconds. After centrifuging for 5 minutes at 16 000 g, 250 μL of supernatant were transferred to an autosampler vial, which was made up with 250 μL of ammonium acetate buffer (AAC, 10 mM, pH 6.8) and shaken again.
For the processing of a tumour, it was admixed with 4 times the amount of methanol. […] After again being shaken, the tumour sample was ready for measurement.
The measurement of both matrix samples took place, lastly, on the HPLC-coupled, atmospheric pressure ionization/tandem mass spectrometer by means of a Turbo Ion Spray Interface (TISP) on an API4000 instrument from SCIEX. The m/z transitions measured were as follows: […]

[3] = system: tubulin; experiment: Fluorescence-based microtubule (tubulin) polymerization assay; format: biochemical; settings: for reduction in the polymerization rate: 1 μM
Description: Tubulin polymerization was investigated using the “Fluorescence-based Microtubule Polymerisation Assay Kit” from Cytoskeleton (Denver, Colo., USA; order number: BK011). With this assay, GTP is added to unpolymerized tubulin, allowing polymerization to take place spontaneously. The assay is based on the binding of the fluorophore 4′,6-di-amidino-2-phenylindole (DAPI) to tubulin. Free and bound DAPI can be differentiated on the basis of different emission spectra.
[…] In addition to the buffer control, paclitaxel, with a polymerization-increasing effect, and vinblastin, with a polymerization inhibiting effect, were run additionally as assay controls. Measurement was carried out using 96-well plates with a half base area. The kinetics of the tubulin polymerization were monitored in a Fluorimeter at 37° C. for 1 hour. The excitation wavelength was 355 nm, and emission was monitored at 460 nm. For the region of linear increase within the first 10 minutes, a calculation was made of the change in fluorescence per minute (ΔF/min), which represents the polymerization rate of the microtubuli. The potency of the test substances was quantified on the basis of their respective reduction of the polymerization rate.
The reduction in the tubulin polymerization rate occurs in dependence on the concentration of the test substance added.

[4] = Caco-2 flux assay for cell permeability; format: in vitro ADME; settings: human, Caco-2 cells, B to A
Description: as §1

[5] = biological target: Mesothelin (Homo sapiens, UniProt Q13421-3 37-598, GPI anchor); experiment: cell-based or functional assay
[6] = concentration of toxophore 1 μM
[7] = concentration of toxophore 10 μM

Row | Molecule | Papp (B-A) [1] [×10⁻⁶ cm/s] | Tubulin polymerization in the presence of toxophore in [%]. Tubulin polymerization rate at 1 μM MMAF set at 100% [3, 6] [%] | Tubulin polymerization in the presence of toxophore in [%]. Tubulin polymerization rate at 1 μM MMAF set at 100% [3, 7] [%] | further results
1 | CC[C@H](C)[C@@H]([C@@H](CC(=O)N1CCC[C@H]1[C@H](OC)[C@@H](C)C(=O)N[C@@]1(C(=O)N2CCCCO2)C[C@@H]1c1ccccc1)OC)N(C)C(=O)[C@@H](NC(=O)[C@H](C(C)C)N(C)CCCC(=O)NNC(=O)CCCCCN1C(=O)CC(SC[C@H](N)C(=O)O)C1=O)C(C)C (stereo partly drawn) [Example 64, N-(4-{2-[6-(3-{[(2R)-2-Amino-2-carboxyethyl]sulphanyl}-2,5-dioxopyrrolidin-1-yl)hexanoyl]hydrazino}-4-oxobutyl)-N-methyl-L-valyl-N-[(3R,4S,5S)-3-methoxy-1-{(2S)-2-[(1R,2R)-1-methoxy-2-methyl-3-{[(1S,2R)-1-(1,2-oxazinan-2-ylcarbonyl)-2-phenylcyclopropyl]amino}-3-oxopropyl]pyrrolidin-1-yl}-5-methyl-1-oxoheptan-4-yl]-N-methyl-L-valinamide] | 0.25 | 120 |  | exposure in plasma [2]: identical to the exposure in plasma in animals with transfected tumours; reduction in the polymerization rate [3]: 41%
2 | CC[C@H](C)[C@@H]([C@@H](CC(=O)N1CCC[C@H]1[C@H](OC)[C@@H](C)C(=O)N[C@@H](Cc1c[nH]c2ccccc12)C(=O)NCc1ccccc1)OC)N(C)C(=O)[C@@H](NC(=O)[C@H](C(C)C)N(C)CCCC(=O)NNC(=O)CCCCCN1C(=O)CC(SC[C@H](N)C(=O)O)C1=O)C(C)C (stereo partly drawn) [Example 68, N-(4-{2-[6-(3-{[(2R)-2-Amino-2-carboxyethyl]sulphanyl}-2,5-dioxopyrrolidin-1-yl)hexanoyl]hydrazino}-4-oxobutyl)-N-methyl-L-valyl-N-[(3R,4S,5S)-1-{(2S)-2-[(1R,2R)-3-{[(2S)-1-(benzylamino)-3-(1H-indol-3-yl)-1-oxopropan-2-yl]amino}-1-methoxy-2-methyl-3-oxopropyl]pyrrolidin-1-yl}-3-methoxy-5-methyl-1-oxoheptan-4-yl]-N-methyl-L-valinamide] | 0.7 |  | 45 | 
3 | CC[C@H](C)[C@@H]([C@@H](CC(=O)N1CCC[C@H]1[C@H](OC)[C@@H](C)C(=O)N[C@@H](Cc1c[nH]c2ccccc12)C(=O)N1CCCCO1)OC)N(C)C(=O)[C@@H](NC(=O)[C@H](C(C)C)N(C)CCCCCC(=O)NCCCC[C@H](N)C(=O)O)C(C)C [Example 105, N-(6-{[(5S)-5-Amino-5-carboxypentyl]amino}-6-oxohexyl)-N-methyl-L-valyl-N-[(3R,4S,5S)-1-{(2S)-2-[(1R,2R)-3-{[(2S)-3-(1H-indol-3-yl)-1-(1,2-oxazinan-2-yl)-1-oxopropan-2-yl]amino}-1-methoxy-2-methyl-3-oxopropyl]pyrrolidin-1-yl}-3-methoxy-5-methyl-1-oxoheptan-4-yl]-N-methyl-L-valinamide trifluoroacetate] (X1-V[Dil][Dolaproine]W-{Oxazinan2yl(1,2)}) | 0.2 | 45 | 1 | 
4 | CC[C@H](C)[C@@H]([C@@H](CC(=O)N1CCC[C@H]1[C@H](OC)[C@@H](C)C(=O)N[C@@H](Cc1c[nH]c2ccccc12)C(=O)O)OC)N(C)C(=O)[C@@H](NC(=O)[C@H](C(C)C)N(C)CCCCCC(=O)NCCCC[C@H](N)C(=O)O)C(C)C [Example 106, N-(6-{[(5S)-5-Amino-5-carboxypentyl]amino}-6-oxohexyl)-N-methyl-L-valyl-N-[(3R,4S,5S)-1-{(2S)-2-[(1R,2R)-3-{[(1S)-1-carboxy-2-(1H-indol-3-yl)ethyl]amino}-1-methoxy-2-methyl-3-oxopropyl]pyrrolidin-1-yl}-3-methoxy-5-methyl-1-oxoheptan-4-yl]-N-methyl-L-valinamide] (X1-V[Dil][Dolaproine]W-OH) | 0.1 | 80 | 14 | 
5 | CC[C@H](C)[C@@H]([C@@H](CC(=O)N1CCC[C@H]1[C@H](OC)[C@@H](C)C(=O)N[C@@H](Cc1ccc(O)cc1)C(=O)N1CCCCO1)OC)N(C)C(=O)[C@@H](NC(=O)[C@H](C(C)C)N(C)CCCCCC(=O)NCCCC[C@H](N)C(=O)O)C(C)C [Example 117, N-(6-{[(5S)-5-Amino-5-carboxypentyl]amino}-6-oxohexyl)-N-methyl-L-valyl-N-[(3R,4S,5S)-1-{(2S)-2-[(1R,2R)-3-{[(2S)-3-(4-hydroxyphenyl)-1-(1,2-oxazinan-2-yl)-1-oxopropan-2-yl]amino}-1-methoxy-2-methyl-3-oxopropyl]pyrrolidin-1-yl}-3-methoxy-5-methyl-1-oxoheptan-4-yl]-N-methyl-L-valinamide trifluoroacetate] (X1-V[Dil][Dolaproine]Y-{Oxazinan2yl(1,2)}) | 0.15 | 88 | 21 | 
6 | CC[C@H](C)[C@@H]([C@@H](CC(=O)N1CCC[C@H]1[C@H](OC)[C@@H](C)C(=O)N[C@H](C)[C@@H](O)c1ccccc1)OC)N(C)C(=O)[C@@H](NC(=O)[C@@H](NC)C(C)C)C(C)C [MMAE, monomethylauristatin E, reference compound] (H-[NMeV]V[Dil][Dolaproine]-X5) |  |  |  | Papp B→A at 2 h [4]: 7.3 ×10⁻⁶ cm/s
7 | CC[C@H](C)[C@@H]([C@@H](CC(=O)N1CCC[C@H]1[C@H](OC)[C@@H](C)C(=O)N[C@@H](Cc1ccccc1)C(=O)O)OC)N(C)C(=O)[C@@H](NC(=O)[C@@H](NC)C(C)C)C(C)C [MMAF, Monomethylauristatin F, reference compound] (H-[NMeV]V[Dil][Dolaproine]F-OH) | 7.3 | 100 | 34 | reduction in the polymerization rate [3]: 40-45%; effect on tubulin polymerization ([3]; 100 μM): complete cessation of polymerization; also recorded: inhibited completely; Tubulin polymerization in the presence of toxophore in [%]. Tubulin polymerization rate at 1 μM MMAF set at 100% ([3]; concentration of toxophore 100 μM): 0%
8 | B1 |  |  |  | HT29 meso+ IC50 [nM] (MTT proliferation) [5]: 22 nM
